Data published in patent US6759424B2, “Imidazolidine derivatives, their preparation, their use, and pharmaceutical preparations comprising them” (Aventis Pharma Deutschland GmbH, priority 1997, dated 2004).

Target: T1, interaction between VCAM-1 and VLA-4 (Homo sapiens, UniProt P05556+P13612)
T1 construct: supplied in their natural form as surface molecules on human U937 cells; host or cells: U937 cells carry VLA-4; The VCAM-1(1-3)-IgG partner was made by transient transfection of COS cells (ATCC CRL1651) and used as culture supernatant
T1 sequence (P13612 34-1032): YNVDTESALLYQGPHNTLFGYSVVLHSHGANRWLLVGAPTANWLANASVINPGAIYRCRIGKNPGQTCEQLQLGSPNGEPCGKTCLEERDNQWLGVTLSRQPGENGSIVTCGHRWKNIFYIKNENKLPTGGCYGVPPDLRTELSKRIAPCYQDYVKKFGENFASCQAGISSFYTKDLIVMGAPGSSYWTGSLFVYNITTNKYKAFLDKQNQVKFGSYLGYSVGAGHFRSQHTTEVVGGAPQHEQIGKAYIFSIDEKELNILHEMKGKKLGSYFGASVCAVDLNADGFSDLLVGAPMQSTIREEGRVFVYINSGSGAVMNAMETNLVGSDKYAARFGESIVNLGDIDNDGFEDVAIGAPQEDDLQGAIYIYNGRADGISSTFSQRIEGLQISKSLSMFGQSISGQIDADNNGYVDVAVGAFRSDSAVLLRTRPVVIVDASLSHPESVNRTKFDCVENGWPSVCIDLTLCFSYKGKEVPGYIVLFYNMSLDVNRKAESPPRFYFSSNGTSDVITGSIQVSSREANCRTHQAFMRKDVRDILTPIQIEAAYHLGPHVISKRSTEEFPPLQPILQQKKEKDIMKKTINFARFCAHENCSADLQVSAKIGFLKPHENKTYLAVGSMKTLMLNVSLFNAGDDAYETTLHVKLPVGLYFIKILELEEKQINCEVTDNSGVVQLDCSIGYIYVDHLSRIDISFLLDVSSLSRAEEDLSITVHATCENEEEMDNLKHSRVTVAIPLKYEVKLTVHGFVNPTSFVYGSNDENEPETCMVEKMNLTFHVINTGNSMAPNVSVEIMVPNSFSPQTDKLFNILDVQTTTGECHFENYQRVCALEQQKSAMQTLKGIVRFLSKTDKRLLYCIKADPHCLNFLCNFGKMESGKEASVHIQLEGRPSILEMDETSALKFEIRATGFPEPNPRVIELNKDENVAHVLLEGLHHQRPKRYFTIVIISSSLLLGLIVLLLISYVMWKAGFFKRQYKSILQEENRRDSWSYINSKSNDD
T1 sequence (P05556 21-798): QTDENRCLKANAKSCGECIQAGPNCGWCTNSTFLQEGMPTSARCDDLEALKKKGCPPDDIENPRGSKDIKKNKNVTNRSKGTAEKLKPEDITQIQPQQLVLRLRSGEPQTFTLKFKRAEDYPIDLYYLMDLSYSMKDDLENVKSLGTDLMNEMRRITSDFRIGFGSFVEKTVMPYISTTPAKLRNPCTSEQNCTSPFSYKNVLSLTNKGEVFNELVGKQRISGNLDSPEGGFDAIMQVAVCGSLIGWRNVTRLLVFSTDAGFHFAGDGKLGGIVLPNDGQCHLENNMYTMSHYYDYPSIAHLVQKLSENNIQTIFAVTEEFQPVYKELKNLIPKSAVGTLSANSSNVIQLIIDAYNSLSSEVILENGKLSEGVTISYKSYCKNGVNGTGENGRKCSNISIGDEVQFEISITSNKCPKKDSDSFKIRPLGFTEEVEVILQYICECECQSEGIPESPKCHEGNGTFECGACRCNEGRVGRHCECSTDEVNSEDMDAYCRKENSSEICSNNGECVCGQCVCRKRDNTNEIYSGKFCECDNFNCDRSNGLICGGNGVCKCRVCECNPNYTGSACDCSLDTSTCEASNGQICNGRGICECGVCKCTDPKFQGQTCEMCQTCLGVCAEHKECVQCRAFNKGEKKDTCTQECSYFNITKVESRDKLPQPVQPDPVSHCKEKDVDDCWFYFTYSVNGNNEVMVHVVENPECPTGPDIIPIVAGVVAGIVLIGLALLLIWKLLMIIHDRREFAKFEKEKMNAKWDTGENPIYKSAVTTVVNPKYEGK
Assay: U937/VCAM-1 cell adhesion test (adhesion of U937 cells to hVCAM-1(1-3)-IgG)
Assay type: cell-based
Settings: human U937 cells adhering to hVCAM-1(1-3)-IgG; concentration giving 50% inhibition of adhesion
Description: The test method used for the activity of the compounds of the formula I on the interaction between VCAM-1 and VLA-4 is an assay which is specific for this interaction. The cellular binding components, i.e., the VLA-4 integrins, are supplied in their natural form as surface molecules on human U937 cells (ATCC CRL 1593), which belong to the leucocytes group. The specific binding components used are genetically engineered recombinant soluble fusion proteins, consisting of the extracytoplasmatic domain of human VCAM-1 and the constant region of a human immunoglobulin of the subclass IgG1.
Assay for the Measurement of the Adhesion of U937 Cells (ATCC CRL 1593) to hVCAM-1 (1-3)-IgG
1. Preparation of Human VCAM-1(1-3)-IgG and Human CD4-IgG
A genetic construct for the expression of the extracellular domain of human VCAM-1, associated with the genetic sequence of the heavy chain of human immunoglobulin IgG1 (hinge, CH2 and CH3 regions), from Dr. Brian Seed, Massachusetts General Hospital, Boston, USA was employed (cf. Damle and Aruffo, Proc. Natl. Acad. Sci. USA 1991, 88, 6403-6407). The soluble fusion protein hVCAM-1(1-3)-IgG contained the three amino-terminal extracellular immunoglobulin-like domains of human VCAM-1 (Damle and Aruffo, Proc. Natl. Acad. Sci. USA 1991, 88, 6403). CD4-IgG (Zettlmeissl et al., DNA and Cell Biology 1990, 9, 347) served as a fusion protein for negative controls. The recombinant proteins were expressed as soluble proteins after DEAE/dextran-mediated DNA transfection in COS cells (ATCC CRL1651) according to standard procedures (Ausubel et al., Current Protocols in Molecular Biology, John Wiley & Sons, Inc., 1994).
2. Assay for the Measurement of the Adhesion of U937 Cells to hVCAM-1(1-3)-IgG
2.1 96-well microtiter test plates (Nunc Maxisorb) were incubated at room temperature for 1 hour with 100 μl/well of a goat-anti-human IgG antibody solution (10 μg/ml in 50 mM tris, pH 9.5). After removal of the antibody solution, washing was carried out once with PBS.
2.2 150 μl/well of a blocking buffer (1% BSA in PBS) was incubated on the plates at room temperature for 0.5 hour. After removal of the blocking buffer, washing was carried out once with PBS.
2.3 100 μl per well of a cell culture supernatant of transfected COS cells were incubated on the plates at room temperature for 1.5 hours. The COS cells were transfected with a plasmid which codes for the three N-terminal immunoglobulin-like domains of VCAM-1, coupled to the Fc part of human IgG, (hVCAM-1 (1-3)-IgG). The content of hVCAM-1 (1-3)-IgG was about 0.5-1 μg/ml. After removal of the culture supernatant washing was carried out once with PBS.
2.4 The plates were incubated at room temperature for 20 minutes with 100 μl/well of Fc receptor blocking buffer (1 mg/ml of γ-globulin, 100 mM NaCl, 100 μM MgCl2, 100 μM MnCl2, 100 μM CaCl2, 1 mg/ml of BSA in 50 mM HEPES, pH 7.5). After removal of the Fc receptor blocking buffer washing was carried out once with PBS.
2.5 20 μl of binding buffer (100 mM NaCl, 100 μM MgCl2, 100 μM MnCl2, 100 μM CaCl2, 1 mg/ml of BSA in 50 mM HEPES, pH 7.5) were initially introduced, and the substances to be tested were added in 10 μl of binding buffer and incubated for 20 minutes. The controls used were antibodies against VCAM-1 (BBT, No. BBA6) and against VLA-4 (Immunotech, No. 0764). […]

Point of comparison: `CC(C)C(C(=O)NC[C@H](NC(=O)OCC12CC3CC(CC(C3)C1)C2)C(=O)O)N1C(=O)N(Cc2ccccc2)C(C)(c2ccccc2)C1=O` (stereo partly drawn) [Example 4, (S)-3-((R,S)-2-((R,S)-4-Phenyl-3-benzyl-4-methyl-2,5-dioxoimidazolidin-1-yl)-2-isopropylacetylamino)-2-(1-adamantylmethyloxycarbonylamino)-propionic acid], IC50 45 µM. Against it:
- C[C@]1(c2ccc(CO)cc2)C(=O)N(CC(=O)NC[C@H](NC(=O)OCC23CC4CC(CC(C4)C2)C3)C(=O)O)C(=O)N1Cc1ccccc1 [Example 9, (S)-3-(((S)-4-(4-Hydroxymethylphenyl)-3-benzyl-4-methyl-2,5-dioxoimidazolidin-1-yl)acetylamino)-2-(1-adamantylmethyloxycarbonylamino)propionic acid] — 11-fold lower, 4 µM
- CC1(c2ccc(O)cc2)C(=O)N(CC(=O)N[C@@H](CC(=O)O)C(=O)N[C@H](C(=O)O)c2ccccc2)C(=O)N1Cc1ccccc1 (stereo partly drawn) [Example 10, ((R,S)-4-(4-Hydroxyphenyl)-3-benzyl-4-methyl-2,5-dioxoimidazolidin-1-yl)acetyl-L-aspartyl-L-phenylglycine] — 4.7-fold lower, 9.5 µM
- C[C@]1(c2ccc(CO)cc2)C(=O)N(CC(=O)N[C@@H](CC(=O)O)C(=O)N[C@H](C(=O)O)c2ccccc2)C(=O)N1Cc1ccccc1 [Example 8, ((S)-4-(4-Hydroxymethylphenyl)-3-benzyl-4-methyl-2,5-dioxoimidazolidin-1-yl)acetyl-L-aspartyl-L-phenylglycine] — 10-fold lower, 4.5 µM
- CC1(c2ccccc2)C(=O)N(CC(=O)N[C@@H](CC(=O)O)C(=O)N[C@H](C(=O)O)c2ccccc2)C(=O)N1Cc1ccccc1 (stereo partly drawn) [Example 7, ((R,S)-4-Phenyl-3-benzyl-4-methyl-2,5-dioxoimidazolidin-1-yl)acetyl-L-aspartyl-L-phenylglycine] — 5.6-fold lower, 8 µM
